Laboratory results as given in BigSolDB 2.1.

CC(=O)N1CCN(c2ccc(OC[C@@H]3CO[C@@](Cn4ccnc4)(c4ccc(Cl)cc4Cl)O3)cc2)CC1 (racemic)
solubility (mole fraction)
Details	293.2 K	298.2 K	303.2 K	308.2 K	313.2 K
in NMP	0.0212	0.0242	0.0271	0.0301	0.0333
in ethanol	0.00235	0.00299	0.00361	0.00438	0.00527
